# Data as given in PMC12670317, “Targeted NAT10 Degradation by PROTAC NP1192 Suppresses Hypoxia-Adaptive Glycolysis and Reinvigorates CD8^+ Effector T‑Cell Function for Synergistic Cancer Immunotherapy” (ACS Central Science, 2025).
# Test system: HIF-1α
# Assay: HIF-1α protein level in SiHa cells, Western blot
# Assay type: cell-based, human
# Conditions: 36 h
# Protocol: RIPA lysis buffer (Beyotime, China) mixed with 1% protease inhibitor (Sigma, US) was added to the cells, and a sample of total protein was obtained and then loaded onto an 8% or 12% polyacrylamide gel. The gel was placed in a buffer solution, and an electric current was applied. The separated proteins were subsequently transferred from the gel onto a PVDF membrane. Next, the membrane was blocked with 5% milk for 1 h to prevent nonspecific antibody binding. The membranes were subsequently incubated with anti-NAT10 (1:1000, Abcam, USA), anti-PD-L1 (1:1000, Proteintech, China), anti-HIF-1α (1:1000, Abmart, China), and anti-β-tubulin (1:1000, Proteintech, China) primary antibodies for 12 h. Afterward, the membrane was sequentially washed with 1× TBST and incubated for 1 h with an antimouse secondary antibody (1:6000, Elabscience, China) or antirabbit secondary antibody (1:6000, Elabscience, China). The target proteins were detected via chemiluminescence with a ChemiDoc MP Imaging System (Bio-Rad, US).
structure (smiles),measurement,value
N#Cc1ccc(-c2csc(N(CCCCCCC(=O)N3CCN(c4cccc5c4C(=O)N(C4CCC(=O)NC4=O)C5=O)CC3)N=C3CCCC3)n2)cc1 (stereo not shown) [NP1192],HIF-1α protein levels,decreased HIF-1α protein levels
